We go through 17 compounds from PubChem BioAssay (NCI).

Test systems include A549 NSCLC; BT-549 breast; CAKI-1 renal; EKVX NSCLC; HS 578T breast; M14 melanoma; SK-MEL-5 melanoma; T-47D breast; U251 CNS; MDA-N.
What all share (test): NCI tumour cell line growth inhibition, 48 h

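All cell lines were grown in 96-well plates and treated with compound for 48 hours. GI50: concentration for 50% inhibition of growth. TGI: total growth inhibition.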

As to `O=S(=O)(Oc1ccc2oc3ccccc3c2c1-c1c(OS(=O)(=O)C(F)(F)F)ccc2oc3ccccc3c12)C(F)(F)F`, the TGI with A549 NSCLC, in the assay with BT-549 breast, in the assay on CAKI-1 renal, in the assay with EKVX NSCLC, in the assay on HS 578T breast and in the assay with M14 melanoma was > 100 µM throughout. Moreover, the TGI with SK-MEL-5 melanoma, with T-47D breast and with U251 CNS was > 100 µM each time.
Consider `Cc1nc2c(=S)[nH]ncc2[nH]1`, for which the TGI with A549 NSCLC, in the assay with BT-549 breast, in the assay with CAKI-1 renal, in the assay with EKVX NSCLC, in the assay on M14 melanoma and with MDA-N was > 100 µM each time. The TGI in the assay on SK-MEL-5 melanoma, in the assay on T-47D breast and with U251 CNS was > 100 µM throughout.
On to `FC(F)(F)c1ccc(-c2nc(-c3nc4cc(Cl)c(Cl)cc4[nH]3)c3ccccn23)cc1`, for which the GI50 with BT-549 breast is 8.69 µM; in the assay on HS 578T breast, 3.99 µM; in the assay on SK-MEL-5 melanoma, 4.2 µM; in the assay on T-47D breast, 4.06 µM; in the assay on U251 CNS it was 3.13 µM. Besides, the TGI in the assay on BT-549 breast, in the assay with HS 578T breast, with SK-MEL-5 melanoma, in the assay with T-47D breast and in the assay on U251 CNS was > 100 µM in each case.
`CN(C)CC(/C(Cc1ccccc1)=N\NC(=O)C[n+]1ccccc1)c1ccccc1` (stereo not drawn): the TGI with A549 NSCLC, with CAKI-1 renal, in the assay on EKVX NSCLC, in the assay on M14 melanoma, with SK-MEL-5 melanoma and in the assay with U251 CNS was > 100 µM in each case.
Turning to `[O-]/[N+](=C\c1ccccc1)[C@H](COCc1ccccc1)c1ccccc1`, the TGI in the assay with A549 NSCLC, in the assay with EKVX NSCLC, in the assay with SK-MEL-5 melanoma and in the assay with U251 CNS was > 100 µM each time.
With `CCCCNC1CCC2(SCCS2)c2[nH]c3ccccc3c21` (stereo not drawn), the TGI is > 100 µM in the assay on A549 NSCLC; > 100 µM in the assay with BT-549 breast; > 100 µM in the assay on EKVX NSCLC; > 82.1 µM in the assay with HS 578T breast; > 65.1 µM in the assay on M14 melanoma; 18 µM in the assay on SK-MEL-5 melanoma. For the same compound, the TGI turned out to be 6.23 µM with T-47D breast and 97.3 µM with U251 CNS.
Regarding `C1=C(c2ccccc2)CN(c2ccccc2)OC1`, the TGI with A549 NSCLC, with CAKI-1 renal, in the assay with EKVX NSCLC, with M14 melanoma and in the assay with U251 CNS was > 100 µM each time.
For `CCOC(=O)c1cnc(-n2[nH]c(C)c(CCO)c2=O)[nH]c1=O`, the TGI in the assay on A549 NSCLC, in the assay with CAKI-1 renal, in the assay on EKVX NSCLC, in the assay with HS 578T breast, in the assay on M14 melanoma and in the assay on MDA-N was > 100 µM each time. For the same compound, the TGI in the assay with SK-MEL-5 melanoma, with T-47D breast and in the assay with U251 CNS was > 100 µM in each case.
As for `Cc1ccc(S(=O)(=O)N/N=C/c2oc(-c3cccc([N+](=O)[O-])c3)c(-c3cccc([N+](=O)[O-])c3)c2[N+](=O)[O-])cc1`, the TGI in the assay with A549 NSCLC, with CAKI-1 renal, with EKVX NSCLC, in the assay on M14 melanoma, in the assay on SK-MEL-5 melanoma and in the assay with U251 CNS was > 100 µM throughout.
Regarding `CC(=O)OCC1OC(Nc2[nH]c(=O)n(C)c(=O)c2-c2csc(N)n2)C(OC(C)=O)C(OC(C)=O)C1OC(C)=O` (stereo not drawn), the TGI in the assay with A549 NSCLC, in the assay with CAKI-1 renal, with M14 melanoma, with SK-MEL-5 melanoma and in the assay on U251 CNS was > 100 µM throughout.
For the compound `CCN(CC)CCNC(=O)c1ccccc1NC(=O)C(=O)Nc1ccccc1C(=O)NCCN(CC)CC`, the TGI was > 100 µM with A549 NSCLC; > 100 µM with CAKI-1 renal; > 100 µM with EKVX NSCLC; 33.9 µM in the assay with M14 melanoma; 35.6 µM in the assay on SK-MEL-5 melanoma; > 100 µM in the assay on U251 CNS.
Turning to `Cc1ccc(C2CC(=O)CC(c3ccc(C)cc3)C23C(=O)NC(=O)NC3=O)cc1` (stereo not drawn), the TGI in the assay on BT-549 breast, in the assay on CAKI-1 renal, in the assay on EKVX NSCLC, in the assay with M14 melanoma, in the assay with MDA-N and in the assay with SK-MEL-5 melanoma was > 100 µM throughout. The TGI in the assay on T-47D breast and with U251 CNS was > 100 µM each time.
As to `O=C1N[C@H]2c3c(Cl)sc(Cl)c3/C(=N/O)[C@H]2O1`, the TGI with A549 NSCLC, in the assay with BT-549 breast, in the assay on CAKI-1 renal, with EKVX NSCLC, in the assay on M14 melanoma and in the assay with MDA-N was > 100 µM in each case. The TGI in the assay on SK-MEL-5 melanoma, in the assay with T-47D breast and in the assay with U251 CNS was > 100 µM in each case.
In the case of `COc1ccc(/C=C2\CN(C)Cc3c2nc(N)nc3-c2ccc(OC)cc2)cc1`, the TGI with A549 NSCLC, with CAKI-1 renal, in the assay on EKVX NSCLC, in the assay with M14 melanoma, with SK-MEL-5 melanoma and in the assay on U251 CNS was > 100 µM in each case.
As for `CO/C(=N\N=C\c1cc(OC)ccc1OC)c1ccncc1`, the TGI in the assay with A549 NSCLC, in the assay on MDA-N, in the assay on SK-MEL-5 melanoma, with T-47D breast and with U251 CNS was > 10 µM in each case.
`COC(=O)c1c2c(cc3c1CC1(Cc4ccccc4C1=O)C3)CCC2` (stereo not drawn): the TGI in the assay on A549 NSCLC was > 100 µM; in the assay on CAKI-1 renal, > 100 µM; with EKVX NSCLC, > 100 µM; with HS 578T breast, > 100 µM; with M14 melanoma it was > 100 µM; in the assay on MDA-N, 34.2 µM. Also, the TGI with SK-MEL-5 melanoma was 29.5 µM; in the assay with T-47D breast, > 100 µM; in the assay on U251 CNS, > 100 µM.
With `O=C(CP(c1ccccc1)c1ccccc1)c1cccc(C(=O)CP(c2ccccc2)c2ccccc2)c1`, the TGI with A549 NSCLC, with CAKI-1 renal, in the assay on EKVX NSCLC, with HS 578T breast, in the assay on M14 melanoma and in the assay on MDA-N was > 100 µM throughout. In addition, the results for the TGI in the assay with SK-MEL-5 melanoma, in the assay on T-47D breast and in the assay on U251 CNS were > 100 µM, 94.8 µM and > 100 µM, respectively.
